Values after ≈ are worked out from the molar mass of the structure shown.
Key:
S. pneumoniae LigA = S. pneumoniae LigA (Streptococcus pneumoniae serotype 4, UniProt Q97QT2); assay: DNA ligase inhibition, FRET detection assay; type: biochemical; details: ten compound concentrations; read-out: IC50 (μM) against S. pneumoniae LigA
Experimental: Compounds were tested for inhibition of DNA ligase using a Fluorescence Resonance Energy Transfer (FRET) detection assay as previously described (Chen et al. 2002. Analytical Biochemistry 309: 232-240; Benson et al. 2004. Analytical Biochemistry 324:298-300). Assays were performed in 384-well polystyrene flat-bottom black plates in 30 μl reactions containing 3 μl compound dissolved in dimethylsulfoxide, 20 μl 1.5× Enzyme Working Solution (25% glycerol, 45 mM potassium chloride, 45 mM ammonium sulfate, 15 mM dithiothreitol, 1.5 mM ethylenediaminetetraacetic acid (EDTA), 0.003% Brij 35, 75 mM MOPS pH 7.5, 150 nM bovine serum albumin, 1.5 μM NAD^+, 60 nM DNA substrate, 0.375 nM enzyme in water) and 7 μl […] magnesium chlorine solution (96 mM magnesium chloride, 20% glycerol in water) to initiate the reaction. The DNA substrate is similar to that described in Benson et al. (2004. Analytical Biochemistry 324:298-300). The assay reactions were incubated at room temperature for approximately 20 minutes before being terminated by the addition of 30 μl Quench reagent (8 M Urea, 1 M Trizma base, 20 mM EDTA in water). Plates were read in a Tecan Ultra plate reader at two separate wavelengths—Read 1: excitation 485, emission 535, Read 2: excitation 485, emission 595. Data is initially expressed as a ratio of the 595/535 emission values and percent inhibition values were calculated using […] dimethylsulfoxide (no compound) as the 0% inhibition and EDTA-containing (50 mM) reactions as 100% inhibition controls. Compound potency was based on IC50 measurements determined from reactions performed in the presence of ten different compound concentrations.

S. pneumoniae = assay: Bacterial susceptibility testing, microbroth dilution (MIC); type: cell-based; details: Streptococcus pneumoniae; lowest drug concentration able to reduce growth by 80% or more; read-out: MIC (μg/ml) against S. pneumoniae
Experimental: Compounds were tested for antimicrobial activity by susceptibility testing using microbroth dilution methods recommended by NCCLS. Compounds were dissolved in dimethylsulfoxide and tested in 10 doubling dilutions in the susceptibility assays such that the final dimethylsulfoxide concentration in the assay was 2% (v/v). The organisms used in the assay were grown overnight on appropriate agar media and then suspended in the NCCLS-recommended liquid susceptibility-testing media. The turbidity of each suspension was adjusted to be equal to a 0.5 McFarland standard, a further 1-in-10 dilution was made into the same liquid medium to prepare the final organism suspension, and 100 μL of this suspension was added to each well of a microtiter plate containing compound dissolved in 2 μL of dimethylsulfoxide. Plates were incubated under appropriate conditions of atmosphere and temperature and for times according to NCCLS standard methods prior to being read. The Minimum Inhibitory Concentration (MIC) was determined as the lowest drug concentration able to reduce growth by 80% or more.

Chain of S. pneumoniae LigA (Q97QT2 whole entry): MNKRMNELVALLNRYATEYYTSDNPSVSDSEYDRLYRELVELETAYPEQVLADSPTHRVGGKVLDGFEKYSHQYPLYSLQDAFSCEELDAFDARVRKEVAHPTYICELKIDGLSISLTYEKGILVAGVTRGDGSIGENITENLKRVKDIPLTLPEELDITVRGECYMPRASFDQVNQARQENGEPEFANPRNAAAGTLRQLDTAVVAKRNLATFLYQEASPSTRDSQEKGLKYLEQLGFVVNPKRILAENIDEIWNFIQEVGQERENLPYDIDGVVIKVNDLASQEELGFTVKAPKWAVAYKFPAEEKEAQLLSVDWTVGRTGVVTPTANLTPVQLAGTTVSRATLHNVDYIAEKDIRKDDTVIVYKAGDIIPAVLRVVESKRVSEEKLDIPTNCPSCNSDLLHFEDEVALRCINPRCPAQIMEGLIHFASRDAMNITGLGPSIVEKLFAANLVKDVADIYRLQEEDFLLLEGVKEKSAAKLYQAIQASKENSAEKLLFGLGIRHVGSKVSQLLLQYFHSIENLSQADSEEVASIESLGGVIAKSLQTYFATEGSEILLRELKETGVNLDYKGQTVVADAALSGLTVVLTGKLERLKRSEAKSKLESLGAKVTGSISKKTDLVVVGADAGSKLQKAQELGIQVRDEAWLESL

Structure (SMILES)	IC50 (S. pneumoniae LigA)	MIC (S. pneumoniae)
Nc1nc(SCc2ccco2)nc2c1ncn2C1CCCO1 (stereo not shown) [Example 6, 2-[(2-furylmethyl)thio]-9-(tetrahydrofuran-2-yl)-9H-purin-6-amine]	1.8 µM	–
Nc1nc(OCc2ccccc2)nc2c1ncn2C1CCCO1 (stereo not shown) [Example 25, 2-(benzyloxy)-9-(tetrahydrofuran-2-yl)-9H-purin-6-amine]	4 µM	–
Nc1nc(OC2CCCCC2)nc2c1ncn2C1CCCO1 (stereo not shown) [Example 27, 2-(cyclohexyloxy)-9-(tetrahydrofuran-2-yl)-9H-purin-6-amine]	–	8 µg/mL (≈ 26.4 µM)
Nc1nc(OC2CCC3CCCCC3C2)nc2c1ncn2C1CCCO1 (stereo not shown) [Example 62, 2-(decahydronaphthalen-2-yloxy)-9-(tetrahydrofuran-2-yl)-9H-purin-6-amine]	–	4 µg/mL (≈ 11.2 µM)
Nc1nc(OC2CCCC2)nc2c1ncn2C1OCCC1N (stereo not shown) [Example 128, 9-(3-aminotetrahydrofuran-2-yl)-2-(cyclopentyloxy)-9H-purin-6-amine]	0.7 µM	–
Nc1nc(OC2CCCC2)nc2c1ncn2[C@@H]1O[C@H](COCCO)[C@@H](O)[C@H]1O [Example 129, 2-(cyclopentyloxy)-9-[5-O-(2-hydroxyethyl)-β-D-ribofuranosyl]-9H-purin-6-amine]	–	8 µg/mL (≈ 20.2 µM)

Second part, the molecule after the results:

IC50 (S. pneumoniae LigA)	MIC (S. pneumoniae)	Structure (SMILES)
0.145 µM	2 µg/mL (≈ 5.47 µM)	Nc1nc(OCC2CCCC2)nc2c1ncn2[C@@H]1O[C@H](CO)[C@@H](O)[C@H]1O [Example 172, 2-(Cyclopentyl)methoxy-9-β-D-ribofuranosyl-9H-purine-6-amine]
0.5 µM	–	C=C[C@H]1O[C@@H](n2cnc3c(N)nc(OC4CCCC4)nc32)[C@H](O)[C@@H]1O [Example 259, 2-(cyclopentyloxy)-9-(5,6-dideoxy-β-D-ribo-hex-5-enofuranosyl)-9H-purin-6-amine]
–	4 µg/mL (≈ 8.78 µM)	COc1cccc(CO[C@H]2[C@@H](O)[C@H](n3cnc4c(N)nc(OC5CCCC5)nc43)O[C@@H]2C)c1 [Example 356]

— US20090048203A1, “SUBSTITUTED ADENINES AND THE USES THEREOF” (priority 2004, published 2009)
